Source: US10220025B1, “Self-emulsifying formulation of CARP-1 functional mimetics” (Florida A&M University, priority 2016, dated 2019)

Experiments:
[1] = system: drug-resistant TNBC cells; test: MTT viability assay, drug-resistant TNBC sublines (not singled out); type: cell-based; conditions: 12 h; FIGS. 4A-4E
Experimental: Human TNBC MDA-MB-468 and MDA-MB-231, and mouse TNBC 4T1 cells were cultured in the chronic presence (>10 months) of Doxorubicin. The parental, wild-type cells were initially treated with 200 nM Doxorubicin for 2-3 weeks, followed by escalation to 400 nM, 1 μM, and 2 μM doses over a period of 3-4 weeks for each dose till resistance developed and the cells became well adapted to growth in […] of Doxorubicin for their routine culture. In the case of Cisplatin however, the human TNBC MDA-MB-468 and MDA-MB-231 were initially cultured in continuous presence of 1 μM Cisplatin for 3-4 weeks, and the dose was escalated to 1.5 μM and 3 μM over periods of 3-4 weeks for each dose till resistance developed and cells became adapted to routine culture in 3 μM dose. Subsequent, routine maintenance of the resistant cells in the presence of the respective drug was continued and multiple, resistant sublines for each of the TNBC cells were isolated and characterized for their growth inhibitory (GI)50 dose of respective therapeutic by the MTT-based viability assays as below.

[2] = system: parental and drug-resistant human TNBC cells
Experimental: Control cells were treated with 0.1% DMSO in culture medium.

O=C1N(Cc2ccccc2Cl)c2ccccc2C12NN=C(c1cccc(Cl)c1)S2 (centres unmarked) [CFM-4.16]
growth of ADR or Cisplatin-resistant TNBC sublines [1]: effectively inhibited growth
loss of viability, CFM-4.16 alone [2]: 45-55%
